In series [1] the test system is PC-3 (Human prostate cancer cell line). The series can be described thus: MTT cell viability assay, PC-3. Format: cell-based. The method, then: Cell viability was assayed by 3(4,5-dimethylthiazol-2-yl)-2,5-diphenyltetrazolium bromide (MTT). Briefly. COLO 205, HCT116 and HT29 cells were plated at a density of 2×10^2 cells/mL into 96 well plates. After overnight growth, cells were treated with a series of concentrations of pterostilbene or 3-hydroxypterostilbene for 24 h. The final concentrations of DMSO in the culture medium were <0.05%. At the end of treatment, 0.2% MTT was added and cells were incubated for a further 4 h. Cell viability was determined by scanning with an ELISA reader with a 570 nm filter.
The MTT reaction explained in Para 0040 was also used to assess the cell viability of human prostate cancer cells (PC-3) in the presence of pterostilbene and 3-hydroxypterostilbene. The results (FIG. 1) are represented in Table II.
(In general: Formazan colour is commonly taken as a measure of viable cells.)

Series [2] relates to PARP, DFF-45, pro-caspase 8 and pro-caspase 9 in COLO 205 cells. The series can be described thus: Western blotting of PARP, DFF-45, pro-caspase 8 and pro-caspase 9 cleavage. Format: cell-based, human. The following applies: COLO 205 cell lysates. As to the method: Western blotting analysis was performed as follows. The total proteins of COLO 205 cells were extracted via addition of gold lysis buffer (50 mM TrisHCl, pH 7.4; 1 mM NaF; 150 mM NaCl; 1 mM EGTA; 1 mM phenylmethanesulfonyl fluoride; 1% NP40; and 10 μg/mL leupeptin) to the cell pellets on ice for 30 min, followed by centrifugation at 10,000×g for 30 min at 4° C. The total proteins were measured by BioRad Protein Assay (BioRad Laboratories, Munich, Germany). The samples (50 μg of protein) were mixed with 5× sample buffer containing 0.3 M TrisHCl (pH 6.8), 25% 2mercaptoethanol, 12% sodium dodecyl sulfate (SDS), 25 mM EDTA, 20% glycerol, and 0.1% bromophenol blue. The mixtures were boiled at 100° C. for 5 min and were subjected to 10% SDS polyacrylamide minigels at a constant current of 20 mA. Electrophoresis was then carried out on SDSpolyacrylaniide gels. Proteins on the gel were electrotransferred onto an immobile membrane (PVDF; Millipore Corp., Bedford, Mass.) with transfer buffer composed of 25 mM TrisHCl (pH8.9), 192 mM glycine, and 20% methanol. The membranes were blocked with blocking solution containing 20 mM TrisHCl, and then immunoblotted with different primary antibodies and β actin. The blots were rinsed three times with PBST buffer (0.2% Tween 20 in 1× PBS buffer) for 10 min each. Then blots were incubated with 1:5000 dilution of the horseradish peroxidase (HRP) conjugated secondary antibody (Zymed Laboratories, San Francisco, Calif.) and then washed again three times with PBST buffer. The transferred proteins were visualized with an enhanced chemi-luminescence detection kit (ECL Amersham Pharmacia Biotech, Buckinghamshire, UK). The densities of the bands were quantified with a computer densitometer (AlphaImager™ 2200 System Alpha densitometer. Innotech Corporation, San Leandro, Calif.). […] The pro-caspase 8 cleavage by 3-HPT was moderate (FIG. 12).
(In general: Immunoblotting shows a protein as a band on a membrane.)

Series [3] relates to PI3K/Akt, MAPKs and mTOR signaling in COLO 205 cells. As to the kind of experiment: Western blotting of mTOR/p70S6K, PI3K/Akt and MAPKs signaling. It is filed as cell-based, human. The following applies: COLO 205, 50 μM, 24 hours. The method, then: Western blotting analysis was performed as follows. The total proteins of COLO 205 cells were extracted via addition of gold lysis buffer (50 mM TrisHCl, pH 7.4; 1 mM NaF; 150 mM NaCl; 1 mM EGTA; 1 mM phenylmethanesulfonyl fluoride; 1% NP40; and 10 μg/mL leupeptin) to the cell pellets on ice for 30 min, followed by centrifugation at 10,000×g for 30 min at 4° C. The total proteins were measured by BioRad Protein Assay (BioRad Laboratories, Munich, Germany). The samples (50 μg of protein) were mixed with 5× sample buffer containing 0.3 M TrisHCl (pH 6.8), 25% 2mercaptoethanol, 12% sodium dodecyl sulfate (SDS), 25 mM EDTA, 20% glycerol, and 0.1% bromophenol blue. The mixtures were boiled at 100° C. for 5 min and were subjected to 10% SDS polyacrylamide minigels at a constant current of 20 mA. Electrophoresis was then carried out on SDSpolyacrylaniide gels. […] The transferred proteins were visualized with an enhanced chemi-luminescence detection kit (ECL Amersham Pharmacia Biotech, Buckinghamshire, UK). The densities of the bands were quantified with a computer densitometer (AlphaImager™ 2200 System Alpha densitometer. Innotech Corporation, San Leandro, Calif.). […]
COLO 205 cells were treated with 50 μM pterostilbene or 3-hydroxypterostilbene for 24 hours. Cell lysates were prepared after 24 h treatment and the protein expression of LC3 were analyzed by Western blotting.

The subject of a further series is PC-3 cell lines. As to the kind of experiment: Microscopic morphological changes of PC-3 cells. The following applies: PC-3, 2.5-20 μM, 100× phase contrast. Format: cell-based, human. As to the method: The morphological changes evident in PC-3 cell lines treated with graded concentrations of 3-HPT (2.5 μM, 5 μM, 10 μM and 20 μM of 3-HPT) as viewed microscopically (100× under inverted stage microscope equipped with phase contrast) indicated cell cytotoxicity starting at a concentration of 5 μM 3-HPT (FIG. 2).

Series [4] has as its system caspase 3, 8 and 9 in PC-3 cells. As to the kind of experiment: Fluorometric caspase 3, 8 and 9 activity in PC-3 cells. Format: cell-based, human. The following applies: PC-3, 0-20 μM, 48 hours.
For another series, the system named is PC-3 cells. The series can be described thus: Detection of autophagy (GFP-LC3 autophagosomes, Beclin-1/LC3 Western blot). It is filed as cell-based, human. As to conditions: PC-3, 10 μM. As to the method: Photographs were obtained with a fluorescence microscope (Axioscop, Carl Zeiss, Thomwood, N.Y.) equipped with a mercury 100 W lamp, 490 nm band pass blue excitation filters, a 500 nm dichroic mirror and a 515 nm long pass barrier filter. The autophagy induced by 3-HPT in PC-3 cells was also further confirmed by the Western Blotting analysis of Beclin-1, LC3-I, LC3-II, Actin protein expression in PC-3 cells after 10 μM 3-HPT treatment at different time intervals (FIG. 9). The following conclusions were drawn based on aforesaid experimental studies. • 1. […] 3-Hydroxypterostilbene induced the intrinsic apoptotic pathway and extrinsic apoptotic pathway in PC-3 cells. • 3. […] 3′-Hydroxypterostilbene has significant therapeutic potential for the treatment of human prostate cancer.

Turning to `COc1cc(/C=C/c2ccc(O)c(O)c2)cc(OC)c1` [3-hydroxypterostilbene, 3,4-dihydroxy-3′,5′-dimethoxy-trans-stilbene], half-maximal inhibition in series [1] (Homo sapiens, PC-3, MTT) (IC50) was put at 5 µM. Moreover, the growth inhibitory effect result in series [1] (PC-3 human prostate cancer cells) is reported as “strong growth inhibitory effect”. Also, in series [2], the DFF45 protein degradation entry is “induced DFF45 protein degradation”, the “pro-caspase 8 cleavage” value is “moderate” and the “pro-caspase 9 cleavage” value is “much better than that exemplified by pterostilbene”. In addition, the “degradation of PARP” value in series [2] (compared with pterostilbene) is “markedly caused the degradation of 116 kDa PARP into 85 kDa fragments”. Also, the “PI3K/Akt and MAPKs signalings, phosphorylation of mTOR” value in series [3] is recorded as “significantly down regulated”. Besides, the “concentration at which cell cytotoxicity starts (morphological changes)” value in the series on PC-3 cell lines is listed as 5 μM. Besides, the “caspases activity (caspase 3, 8 and 9)” value in series [4] is “initiation of caspases activity”. The “autophagy (Beclin-1, LC3 expression, autophagosome formation)” value in the series on PC-3 cells was “induced autophagic cell death by increasing the Beclin-1, LC3 protein expression and autophagosome formation”.

As usually defined, the IC50 is the midpoint of a concentration-inhibition curve. A low value points to higher potency.
